We go through 1 compound from US9663478B2, “Benzotriazine oxides as drugs targeting Mycobacterium tuberculosis” (priority 2011, dated 2017).

The subject of data set [1] is Mtb H37Rv. The data set can be described thus: TB MIC - SRI, resazurin-based microplate assay. Particulars: for MIC: Mycobacterium tuberculosis, H37RV. It counts as cell-based, Mycobacterium tuberculosis.
Data set [2] has as its system Mtb H37Rv. Kind of data set: TB MIC - ITR (UIC), Institute for Tuberculosis Research. The format is cell-based, Mycobacterium tuberculosis. To be noted: Mycobacterium tuberculosis, H37RV, read-out: TB MIC - ITR.
Data set [3] has as its system Mycobacterium smegmatis ATCC 10143. Kind of data set: Spectrum of antimicrobial activity. The format is cell-based.
For data set [4], the system named is Klebsiella pneumoniae ATCC 700721. The data set can be described thus: Spectrum of antimicrobial activity. The format is cell-based.
Data set [5] deals with Enterobacter aerogenes SRI Collection. The data set can be described thus: Spectrum of antimicrobial activity. It counts as cell-based.
In another data set the test system is Escherichia coli BAA 201. Kind of data set: Spectrum of antimicrobial activity. The format is cell-based.
The test system of data set [6] is Escherichia coli ATCC 25922. Kind of data set: Spectrum of antimicrobial activity. It counts as cell-based.
Data set [7] has as its system Acinetobacter baumannii ATCC 17978. The data set can be described thus: Spectrum of antimicrobial activity. It counts as cell-based.
Data set [8] has as its system Staphylococcus aureus ATCC 29213. Kind of data set: Spectrum of antimicrobial activity. It counts as cell-based.
For data set [9], the system named is Enterococcus fecalis ATCC 29212. Kind of data set: Spectrum of antimicrobial activity. The format is cell-based.
Data set [10] relates to Escherichia coli pKM101 SRI Collection. Kind of data set: Spectrum of antimicrobial activity. The format is cell-based.
Data set [11] deals with Pseudomonas aeruginosa ATCC 27853. The data set can be described thus: Spectrum of antimicrobial activity. It counts as cell-based.
Data set [12] deals with Moraxella catarrhalis ATCC 25238. Kind of data set: Spectrum of antimicrobial activity. The format is cell-based.
The nature of data set [13]: Solubility, shake-flask method. It counts as physicochemical. Particulars: 0.9% saline solution at pH 7.4, triplicate. As to the method: The solubility of these two compounds was measured in triplicate using the shake-flask method in a 0.9% saline solution at pH 7.4. Both 8a and 20q had acceptable solubilities of 1.35 mg/mL and 0.28 mg/mL, respectively.
Compounds were ground into a fine powders using a mortar and pestle and added to a 25 mL glass Erlenmeyer flask with 5 mL of a 0.9% saline solution at pH 7.4. Approximately 20 mg of compound was added to each flask to ensure saturation. The flasks were then vigorously stirred using a magnetic stir bar at 25° C. for 48 hours. The samples were then filtered through a Whatman PVDF membrane (0.45 μm pore size) syringe filter. The concentration of compound in the supernatant was then measured using HPLC quantitation at the maximum absorption wavelength for each compound.

Data set [14] in a line: Plasma pharmacokinetics in female mice after oral administration. To be noted: female mice, oral, 100 mg/kg. The format is in vivo, mouse. As to the method: In order to validate BTOs as a new lead series for the treatment of TB, we also evaluated their systemic exposure in the mouse after oral administration. A single dose (100 mg/kg) of 8a and 20q were administered to mice in order to profile the pharmacokinetics for the BTOs (Table 7). […] The elimination half-life was for each compound was shorter than our ideal target values, but the Tmax values indicate that they are rapidly absorbed after oral administration (FIGURE).
All pharmacokinetic studies were performed in accordance with SRI International's animal care policies in an AAALAC and OLAW accredited facility. The procedure for the pharmacokinetics studies followed a previously described method.^55 Briefly, the plasma pharmacokinetics of selected BTO derivatives were determined in female CD1 mice after administration of a single dose (100 mg/kg) by oral gavage. Blood was collected from three mice per time point at 5, 15, 30, and 60 min and 2, 4, 6, 8, and 24 h after dose administration. Means and standard deviations were calculated for the plasma drug concentrations at each time point. Pharmacokinetic analysis was performed using non compartmental methods (WinNonlin® Professional, Version 5.2, Pharsight Corp, Mountain View, Calif.). The following parameters were calculated: time to maximum plasma concentration (Tmax), maximum plasma concentration (Cmax), maximum plasma concentration extrapoloated to time 0 (C0), area under the plasma concentration-time curve to the last time point (AUClast) and to infinity (AUCinf).

≈ marks a conversion by molar mass, not a printed value.

With `[O-][n+]1nc(N2CCCC2)[n+]([O-])c2cc3c(cc21)CCC3` [Compound 20q, 3-(pyrrolidin-1-yl)-7,8-dihydro-6H-indeno[5,6-e][1,2,4]triazine 1,4-dioxide], the MIC in the data set with Mtb H37Rv [1] (read-out: MIC, H37Rv, Table 5) is 0.62 mg/L (≈ 2.28 µM). Besides, in the data set with Mtb H37Rv [1] (read-out: TB MIC - SRI, Tables 1-4 and text), the MIC was 0.31 mg/L (≈ 1.14 µM). Moreover, the “Antimicrobial activity, Mtb H37Rv” value in the data set with Mtb H37Rv [1] (source CSU, SI Table 1) stood at 0.31 µg/mL. The MIC with Mtb H37Rv [2] worked out at 0.46 mg/L (≈ 1.69 µM). In [3], the “Antimicrobial activity, Mycobacterium smegmatis” value came out at 2.5 µg/mL. The “Antimicrobial activity, Klebsiella pneumoniae” value in data set [4] was >32 µg/mL. In addition, in [5], the “Antimicrobial activity, Enterobacter aerogenes” value is >32 µg/mL. In addition, in the data set with Escherichia coli BAA 201, the “Antimicrobial activity, Escherichia coli” value is >32 µg/mL. In [6], the “Antimicrobial activity, Escherichia coli” value was >32 µg/mL. For the same compound, the “Antimicrobial activity, Acinetobacter baumannii” value in [7] is >32 µg/mL. The “Antimicrobial activity, Staphylococcus aureus” value in data set [8] was >32 µg/mL. The “Antimicrobial activity, Enterococcus fecalis” value in [9] is >32 µg/mL. For the same compound, the “Antimicrobial activity, Escherichia coli pKM101” value in [10] is reported as >32 μg/mL. Also, in [11], the “Antimicrobial activity, Pseudomonas aeruginosa” value is >32 µg/mL. Further, in [12], the “Antimicrobial activity, Moraxella catarrhalis” value was found to be 10 µg/mL. Besides, the solubility in data set [13] is recorded as 0.28 mg/mL (≈ 1030 µM). Moreover, in data set [14], the AUCinf was found to be 11.248 µg·h/mL, the AUClast came out at 11.219 µg·h/mL, the Cmax is 9.767 µg/mL and the Tmax is 0.25 h. The t1/2 in data set [14] worked out at 1.9 h.
